Results published in patent US10421769B2, “Anticancer property studies of chiral palladium N-heterocyclic carbene complexes and process for preparation thereof” (Indian Institute of Technology Bombay, priority 2017, dated 2019).
“Also recorded” adds a separate entry of the source.

Assays:
[1] = test system: EMT6/AR1 cells; assay: Sulforhodamine B assay, multidrug resistant EMT6/AR1 cells; format: cell-based, mouse; conditions: EMT6/AR1 multidrug resistant mammary cancer cells, SRB
Procedure: (§1) The present invention further provides a Sulforhodamine B assay method for investigating the anti-cancer efficacies of the compounds of the present Pd—NHC series on MCF-7, HeLa, A549, B16-F10 and EMT6/AR1 cancer cell lines and also for a comparative study on normal skin cell line L929 and normal epithelial breast cells MCF10A. The said Sulforhodamine B assay is conducted as per reported method (Skehan et al., J. Natl. Cancer Inst. 1990, 82, 1107).

[2] = test system: MCF-7 cells; assay: Mitotic index from DNA morphology (Hoechst 33258); format: cell-based, human
Procedure: (§2) Experiment: MCF-7 cells (5 mL) were seeded in 60 mm cell culture dishes at a density of 1.5×10^5 cells/mL. The cells were incubated with 2 and 4 μM (1R,2R,5S)-1c for 36 h for cell cycle analysis. After the required incubation, cells were processed and analyzed by flow cytometry. Cell cycle data was analyzed using Flow Jo software. Cell cycle analysis and mitotic indices of MCF-7 cells in the absence and presence 2 and 4 μM (1R,2R,5S)-1c. Cell cycle analysis was done using flow cytometer after incubating the cells with PI. The data was analyzed using Flow Jo software. Data were average of three independent set of experiments with S.D (±). Mitotic index (percentage of cells in mitosis) was calculated based on DNA morphology of cells stained with Hoechst 33258. Data were average of three independent set of experiments with S.D (±). 1000 cells were scored in each set.

[3] = test system: PARP-1 in MCF-7 cells; assay: Western blot analysis for PARP cleavage; format: cell-based, human; conditions: MCF-7, 4 and 8 μM, 48 h; cisplatin 4 μM as comparison
Procedure: Experiment: MCF-7 cells (5 mL) were seeded at a density of 1.5×10^5 cells/mL in 60 mm cell culture dishes. After cell attachment, they were incubated with 4 and 8 μM (1R,2R,5S)-1c and 4 μM cisplatin for 48 h. The cells were then processed and the whole cell lysate was isolated. An equal amount of total protein was resolved on SDS-PAGE and electroblotted onto a PVDF membrane (Millipore). Immunoblotting was performed using specific antibodies against PARP-1 and β-actin. The blots were developed by chemiluminescence using HRP conjugated secondary IgG.

[4] = test system: HeLa cells; assay: Sulforhodamine B assay, proliferation of HeLa cells; format: cell-based, human; conditions: for IC50: HeLa cervical cancer cells, 24 h, SRB
Procedure: as §1
Experiment: The anti-proliferative activity of the present palladium N-heterocyclic carbene complexes on two different cancer cell lines MCF-7 and HeLa is tested using Sulforhodamine B assay to reveal their anti-tumor properties. The evaluation of growth inhibition of these complexes is done from their IC50 values for the inhibition of cell growth. The IC50 values are compared with Cisplatin to determine any increase in efficacy.
The seeded cells in 96-well plates are incubated with the complex for 24 h and the assay is performed.
The data obtained is graphically represented in accompanying FIG. 2.

[5] = test system: intracellular ROS in MCF-7 cells; assay: Reactive oxygen species (ROS) assay using H2DCFDA, flow cytometry; format: cell-based, human; conditions: 24 h
Procedure: Experiment: Reactive oxygen species (ROS) production in cells when treated with (1R,2R,5S)-1c, was estimated by ROS assay using 2′,7′-dichlorodihydrofluorescein diacetate (H2DCFDA). MCF-7 cells (5 mL) were seeded in 60 mm cell culture dishes at a density of 1.5×10^5 cells/mL. After cell attachment, they were incubated with 4 and 8 μM (1R,2R,5S)-1c for 24 h. Cells treated with 30 μM hydrogen peroxide was used as a positive control. Following 24 h of incubation, the cells were processed and analyzed using flow cytometry. The percentage of DCFH-DA positive MCF-7 cells in the absence and presence 4 and 8 μM (1R,2R,5S)-1c was determined by flow cytometry. 30 μM H2O2 was used as a positive control. Data are average of three independent set of experiments and ±indicates S.D.

[6] = test system: MCF-7 cells; assay: Cell cycle analysis by flow cytometry (PI); format: cell-based, human; conditions: 36 h
Procedure: as §2

[7] = test system: L929 cells; assay: Sulforhodamine B assay, normal skin cells L929 (selectivity); format: cell-based; conditions: L929 IC50 against B16-F10 IC50
Procedure: as §1

[8] = test system: MCF10A cells; assay: Sulforhodamine B assay, normal epithelial breast cells MCF10A (selectivity); format: cell-based; conditions: MCF10A IC50 against MCF-7 IC50
Procedure: as §1

[9] = test system: p53 in MCF-7 cells; assay: Immunostaining for nuclear accumulation of p53; format: cell-based, human; conditions: MCF-7, 4 and 8 μM, 36 h
Procedure: Experiment: MCF-7 (5×10^4 cells/well) cells were seeded on glass cover slip in a 24-well cell culture plate. After the cells were attached, they were incubated with 4 and 8 μM (1R,2R,5S)-1c for 36 h, fixed with 3.7% formaldehyde and processed for immunostaining. After fixing, cells were blocked with 2% BSA and incubated with anti-p53 IgG (1:300) and anti-p21 IgG (1:300) for 2 h at 37° C. Primary antibody incubation was followed by Alexa Fluor 568-conjugated sheep anti-mouse secondary IgG (1:400) incubation for 1 h at 37° C. Hoechst 33258 was used to stain the DNA. Immunofluorescence images were captured using Eclipse TE 2000U microscope (Nikon, Tokyo, Japan) at 40× magnification and processed by Image-Pro Plus software (Media Cybernetics, Silver Spring, Md.). To determine the percentage of cells with nuclear accumulation of p53 and p21, 1000 cells were scored in each case. The experiment was repeated thrice.

Question: What does the source list for “trans-[1-(1R)-menthyl-4-(ethyl)-1,2,4-triazol-5-ylidene]2Pd(OCOCF3)2 [(1R,2R,5S)-1c]”?
Answer: IC50 [1]: 4.8 ± 0.3 µM; Mitotic Index (percentage of cells in mitosis) ([2]; MCF-7, 2 μM): 3 ± 1%; Mitotic Index (percentage of cells in mitosis) ([2]; MCF-7, 4 μM): 3.2 ± 1%; Arrest at mitosis (in words) ([2]; MCF-7, Hoechst 33258 DNA morphology): did not arrest cells at mitosis; PARP cleavage (in words) [3]: more pronounced than cisplatin; also recorded: cleaves PARP in MCF-7 cells; IC50 of Cisplatin against HeLa as multiple of IC50 of the complex ([4]; HeLa): around 4 times; IC50 ([4]; listed as drawing 41): 2.3 ± 1 µM; IC50 ([4]; listed as drawing 48): 2.3 ± 1 µM; % of DCFH-DA positive cells ([5]; MCF-7, 4 μM): 49 ± 11%; % of DCFH-DA positive cells ([5]; MCF-7, 8 μM): 74 ± 1%; Intracellular ROS generation (in words) ([5]; MCF-7, 4 and 8 μM): leads ROS production in cells; also recorded: ROS is generated in MCF-7 cells; % of cells in different phases of cell cycle: G1 ([6]; MCF-7, 2 μM): 30 ± 2%; % of cells in different phases of cell cycle: G2/M ([6]; MCF-7, 2 μM): 35 ± 2%; % of cells in different phases of cell cycle: S ([6]; MCF-7, 2 μM): 31 ± 2%; % of cells in different phases of cell cycle: G1 ([6]; MCF-7, 4 μM): 18 ± 2%; % of cells in different phases of cell cycle: G2/M ([6]; MCF-7, 4 μM): 50 ± 2%; % of cells in different phases of cell cycle: S ([6]; MCF-7, 4 μM): 32 ± 3%; Cell cycle block (in words) ([6]; MCF-7, 2 and 4 μM): blocks MCF-7 cells at the G2 phase; also recorded: blocked cells at the G2/M phase; times more selective towards the cancer cells (B16-F10 vs L929) [7]: around 8.1 times; times more selective towards the cancer cells (MCF-7 vs MCF10A) [8]: around 16 times; Nuclear accumulation of p53 (in words) [9]: leads to the nuclear accumulation of p53
